Test results from US20010011063A1, “Substituted 2,4-diamino-1,3,5-triazines, processes for their preparation and their use as herbicides and plant growth regulators” (priority 1999, published 2001).

Experiments:
Format in all cases: in vivo
[1] = tested on: Sinapis alba, Echinochloa crus-galli, Lolium multiforum, Stellaria media, Cyperus iria, Amaranthus retroflexus, Settaria viridis and Avena sativa; experiment: Post-emergence effect on weeds (greenhouse pot test); details: application rate of 1 kg or less of active substance per hectare; treated at the three-leaf stage; scored visually after about 3 to 4 weeks vs untreated controls
Description: Seeds or rhizome pieces of mono- and dicotyledonous weeds are placed in sandy loam soil in plastic pots, covered with soil and grown in a greenhouse under good growth conditions. Three weeks after sowing, the test plants are treated at the three-leaf stage. The compounds according to the invention, formulated as wettable powders or emulsion concentrates, are sprayed, at various dosages, onto the green parts of the plants at an application rate of 600 to 800 l of water/ha (converted). After the test plants had remained in the greenhouse for about 3 to 4 weeks under optimum growth conditions, the effect of the preparations is scored visually by comparison with untreated controls. The agents according to the invention also have good herbicidal activity post-emergence against a broad spectrum of economically important weed grasses and broad-leaved weeds.

[2] = tested on: Cyperus monti, Echinochloa crus-galli and Sagitaria pygmaea; experiment: Action on harmful plants in rice (paddy rice conditions); details: poured into the dammed water, visual scoring about three weeks after application; also: test concentration or dose not given here
Source text: Transplanted and sown rice and also typical rice weeds (gramineous and broad-leaved) are cultivated in closed plastic pots in a greenhouse to the three-leaf stage (Echinochloa crus-galli 1.5-leaf) under paddy rice conditions (height of water: 2-3 cm). This is followed by treatment with the compounds according to the invention. For this purpose, the formulated active compounds are suspended, dissolved or emulsified in water and applied by pouring them into the dammed water around the test plants in different dosages.

[3] = tested on: Stellaria media, Lolium multiflorum, Amaranthus retroflexus, Sinapis alba, Avena sativa and Settaria viridis; experiment: Pre-emergence effect on weeds (greenhouse pot test); details: application rate of 1 kg or less of active substance per hectare; visually scored after 3 to 4 weeks by comparison with untreated controls
Source text: Seeds or rhizome pieces of mono and dicotyledonous weed plants are placed in sandy loam soil in plastic pots and covered with soil. The compounds according to the invention which are formulated in the form of wettable powders or emulsion concentrates are then applied to the soil cover in the form of aqueous suspensions or emulsions at an application rate of 600 to 800 l of water/ha (converted), in various dosages.

Cc1cccc(CCCC(Nc2nc(N)nc(C(C)C)n2)C2CCC2)c1 (stereo not drawn) [Example 4-71]
very good herbicidal activity: herbicidal activity post-emergence against harmful plants [1] | herbicidal activity against harmful plants which are typical for rice crops [2] | herbicidal activity pre-emergence against harmful plants [3]

Cc1cccc(CCCC(Nc2nc(N)nc(C(C)(C)F)n2)C2CCC2)c1 (stereo not drawn) [Example 4-72]
very good herbicidal activity: herbicidal activity post-emergence against harmful plants [1] | herbicidal activity against harmful plants which are typical for rice crops [2] | herbicidal activity pre-emergence against harmful plants [3]

COc1cccc(CCCC(Nc2nc(N)nc(C(C)C)n2)C2CCC2)c1 (stereo not drawn) [Example 4-75]
very good herbicidal activity: herbicidal activity post-emergence against harmful plants [1] | herbicidal activity against harmful plants which are typical for rice crops [2] | herbicidal activity pre-emergence against harmful plants [3]

COc1cccc(CCCC(Nc2nc(N)nc(C(C)(C)F)n2)C2CCC2)c1 (stereo not drawn) [Example 4-76]
very good herbicidal activity: herbicidal activity post-emergence against harmful plants [1] | herbicidal activity against harmful plants which are typical for rice crops [2] | herbicidal activity pre-emergence against harmful plants [3]

CC(C)Cc1nc(N)nc(NC(Cc2ccccc2)CC2CC2)n1 (stereo not drawn) [Example 5-1]
very good herbicidal activity: herbicidal activity post-emergence against harmful plants [1] | herbicidal activity against harmful plants which are typical for rice crops [2] | herbicidal activity pre-emergence against harmful plants [3]

CC(C)(F)c1nc(N)nc(NC(Cc2ccccc2)CC2CC2)n1 (stereo not drawn) [Example 5-2]
very good herbicidal activity: herbicidal activity post-emergence against harmful plants [1] | herbicidal activity against harmful plants which are typical for rice crops [2] | herbicidal activity pre-emergence against harmful plants [3]

CC(C)c1nc(N)nc(NC(Cc2ccccc2)CC2CC2)n1 (stereo not drawn) [Example 5-3]
very good herbicidal activity: herbicidal activity post-emergence against harmful plants [1] | herbicidal activity against harmful plants which are typical for rice crops [2] | herbicidal activity pre-emergence against harmful plants [3]

CC(C)c1nc(N)nc(NC(CCCCc2ccccc2)C2CC2)n1 (stereo not drawn) [Example 5-43]
very good herbicidal activity: herbicidal activity post-emergence against harmful plants [1] | herbicidal activity against harmful plants which are typical for rice crops [2] | herbicidal activity pre-emergence against harmful plants [3]

CC(C)(F)c1nc(N)nc(NC(CCCCc2ccccc2)C2CC2)n1 (stereo not drawn) [Example 5-44]
very good herbicidal activity: herbicidal activity post-emergence against harmful plants [1] | herbicidal activity against harmful plants which are typical for rice crops [2] | herbicidal activity pre-emergence against harmful plants [3]

CC(C)(F)c1nc(N)nc(NC(CCCCc2ccccc2)C2CCC2)n1 (stereo not drawn) [Example 5-47]
very good herbicidal activity: herbicidal activity post-emergence against harmful plants [1] | herbicidal activity against harmful plants which are typical for rice crops [2] | herbicidal activity pre-emergence against harmful plants [3]

CC(C)Cc1nc(N)nc(N[C@H](Cc2ccccc2)CC2CC2)n1 [Example 6-1]
very good herbicidal activity: herbicidal activity post-emergence against harmful plants [1] | herbicidal activity against harmful plants which are typical for rice crops [2] | herbicidal activity pre-emergence against harmful plants [3]

CC(C)(F)c1nc(N)nc(N[C@H](Cc2ccccc2)CC2CC2)n1 [Example 6-2]
very good herbicidal activity: herbicidal activity post-emergence against harmful plants [1] | herbicidal activity against harmful plants which are typical for rice crops [2] | herbicidal activity pre-emergence against harmful plants [3]

CC(C)c1nc(N)nc(N[C@H](Cc2ccccc2)CC2CC2)n1 [Example 6-3]
very good herbicidal activity: herbicidal activity post-emergence against harmful plants [1] | herbicidal activity against harmful plants which are typical for rice crops [2] | herbicidal activity pre-emergence against harmful plants [3]

CC(C)c1nc(N)nc(N[C@H](CCCCc2ccccc2)C2CC2)n1 [Example 6-43]
very good herbicidal activity: herbicidal activity post-emergence against harmful plants [1] | herbicidal activity against harmful plants which are typical for rice crops [2] | herbicidal activity pre-emergence against harmful plants [3]

CC(C)(F)c1nc(N)nc(N[C@H](CCCCc2ccccc2)C2CC2)n1 [Example 6-44]
very good herbicidal activity: herbicidal activity post-emergence against harmful plants [1] | herbicidal activity against harmful plants which are typical for rice crops [2] | herbicidal activity pre-emergence against harmful plants [3]

CC(C)(F)c1nc(N)nc(N[C@H](CCCCc2ccccc2)C2CCC2)n1 [Example 6-47]
very good herbicidal activity: herbicidal activity post-emergence against harmful plants [1] | herbicidal activity against harmful plants which are typical for rice crops [2] | herbicidal activity pre-emergence against harmful plants [3]
